Tested on: hepatocytes
Experiment: Seq-Well scRNA-Seq of hepatocytes after APAP overdose (signature scores, DEG vs untreated)
Format: in vivo, mouse
Details: APAP vs UT, composite DEG

SMILES: CC(=O)Nc1ccc(O)cc1 [APAP, acetaminophen]
- Ndufs4 logFC: −0.3132
- Ndufs8 logFC: −0.3614
- Ndufv2 logFC: −0.3276
- Ndufv3 logFC: −0.3971
- Neat1 logFC: 0.6374
- Nedd4l logFC: 0.2812
- Nedd8 logFC: −0.3564
- Nfe2l1 logFC: 0.2703
- Nid1 logFC: 0.3426
- Nme1 logFC: −0.4329
- Nop10 logFC: −0.2919
- Nop58 logFC: 0.6634
- Nr0b2 logFC: −0.293
- Nr1d2 logFC: 0.4306
- Nr1i3 logFC: 0.4259
- Nr2f6 logFC: −0.3754
- Nrip1 logFC: 0.2729
- Oaf logFC: −0.7329
- Oat logFC: −1.225
- Orm1 logFC: 0.3651
- Osbpl1a logFC: 0.2728
- Osbpl9 logFC: 0.2788
- Ostc logFC: 0.2658
- Otc logFC: −0.299
- P4hb logFC: 0.4052
- Pabpc1 logFC: 0.4949
- Pacsin2 logFC: 0.3708
- Padi3 logFC: 0.2957
- Pak2 logFC: 0.2815
- Palld logFC: 0.3414
- Pank1 logFC: −0.3527
- Paqr9 logFC: −0.3323
- Pbld1 logFC: −0.4425
- Pcbd1 logFC: −0.6878
- Pcbp2 logFC: 0.3103
- Pck1 logFC: −0.6522
- Pdia3 logFC: 0.5938
- Pecr logFC: −0.3981
- Pex11a logFC: 0.3508
- Pgrmc1 logFC: 0.3502
- Phc2 logFC: 0.312
- Phf20l1 logFC: 0.3085
- Phlda1 logFC: 0.5492
- Pigr logFC: 0.3868
- Pipox logFC: 0.2725
- Pla2g7 logFC: 0.2823
- Plek logFC: 0.3089
- Plin2 logFC: 1.461
- Plin5 logFC: 0.3521
- Plk3 logFC: 0.4166
- Plscr1 logFC: 0.4445
- Pnkd logFC: −0.2928
- Pnpla7 logFC: −0.3016
- Pnpla8 logFC: 0.2956
- Pon1 logFC: −0.6858
- Por logFC: 0.336
- Ppara logFC: 0.3589
- Ppp1r12a logFC: 0.3563
- Prdx1 logFC: −0.5292
- Prdx4 logFC: −0.4176
- Prdx5 logFC: −0.2821
- Prkaa2 logFC: 0.2636
- Prodh2 logFC: 0.3453
- Prox1 logFC: 0.2663
- Proz logFC: 0.2632
- Prrc2c logFC: 0.4393
- Psat1 logFC: 0.3012
- Psen2 logFC: −0.9474
- Psmb1 logFC: −0.3585
- Psmb3 logFC: −0.3303
- Psmb6 logFC: −0.3194
- Psme1 logFC: −0.394
- Psme4 logFC: 0.2626
- Ptp4a1 logFC: 0.2627
- Ptpn2 logFC: 0.2734
- Ptprc logFC: 0.4165
- Ptprf logFC: 0.3071
- Purb logFC: 0.3525
- Pxk logFC: 0.2819
- Pxmp2 logFC: −0.3671
- Pzp logFC: 0.416
- Rarres1 logFC: −0.4556
- Rbm25 logFC: 0.4215
- Rcan1 logFC: 0.7073
- Rdh7 logFC: −0.4186
- Rdx logFC: 0.3736
- Reep3 logFC: 0.409
- Reep6 logFC: 0.5143
- Rell1 logFC: 0.5912
- Retnlg logFC: 0.3751
- Rexo2 logFC: −0.3263
- Rgn logFC: −1.573
- Rgs16 logFC: 0.3226
- Rlim logFC: 0.3102
- Rnase4 logFC: −1.049
- Rnaseh2c logFC: −0.3257
- Rnf13 logFC: 0.2553
- Rnf144a logFC: 0.313
- Romo1 logFC: −0.3359
- Rpl4 logFC: 0.2839
- Rpl13a logFC: −0.3815
- Rpl13 logFC: −0.2997
- Rpl14 logFC: −0.2776
- Rpl38 logFC: 0.2543
- Rplp0 logFC: −0.4309
- Rps3 logFC: −0.3493
- Rps8 logFC: −0.2746
- Rps9 logFC: −0.3718
- Rps10 logFC: −0.3369
- Rps15 logFC: −0.4552
- Rps18 logFC: −0.4885
- Rps21 logFC: −0.3645
- Rps27l logFC: −0.8659
- Rsp14 logFC: −0.4021
- Saa2 logFC: 0.9645
- Sardh logFC: 0.2692
- Sbno1 logFC: 0.3671
- Sc4mol logFC: −0.3262
- Scaf11 logFC: 0.3598
- Scd1 logFC: 0.7267
- Sco2 logFC: −0.2929
- Scp2 logFC: −0.5191
- Sdhb logFC: −0.2896
- Sdhc logFC: 0.3944
- Sdr9c7 logFC: −0.26
- Sdsl logFC: 0.2593
- Sec14l2 logFC: −0.7897
- Sec31a logFC: 0.263
- Sec61b logFC: −0.2903
- Sec62 logFC: 0.2516
- Sel1l logFC: 0.336
- Selk logFC: −0.3383
- Serpina1b logFC: −0.3018
- Serpina1c logFC: −0.4026
- Serpina3m logFC: 0.9674
- Serpina3n logFC: 0.8483
- Serpina10 logFC: 0.565
- Serpina12 logFC: −0.4534
- Serpinf1 logFC: 0.3196
- Serping1 logFC: 0.4128
- Sf1 logFC: 0.3023
- Sfpq logFC: 0.394
- Sgk1 logFC: 0.2843
- Sh3bgrl logFC: 0.2513
- Sh3glb1 logFC: 0.326
- Shb logFC: 0.3152
- Shmt1 logFC: −0.3932
- Sirt3 logFC: −0.346
- Slc4a4 logFC: 0.4203
- Slc7a2 logFC: 0.3526
- Slc10a1 logFC: −0.3258
- Slc16a6 logFC: 0.9114
- Slc22a1 logFC: −0.7979
- Slc22a30 logFC: −0.3746
- Slc25a10 logFC: 0.3433
- Slc25a13 logFC: 0.2855
- Slc25a20 logFC: 0.38
- Slc25a47 logFC: 0.5027
- Slc27a2 logFC: 0.3853
- Slc27a5 logFC: 0.337
- Slc38a10 logFC: 0.2855
- Slc39a14 logFC: 1.013
- Slc40a1 logFC: 0.467
- Slco1b2 logFC: −1.087
- Slirp logFC: −0.3085
- Smap2 logFC: 0.3489
- Smdt1 logFC: −0.3673
- Smg1 logFC: 0.335
- Snord13 logFC: 0.2611
- Snx10 logFC: 0.2856
- Sod1 logFC: −0.4393
- Sord logFC: −0.3836
- Spp2 logFC: −0.3821
- Sptbn1 logFC: 0.4227
- Srebf1 logFC: 0.2762
- Srgn logFC: 0.9341
- Srp72 logFC: 0.3107
- Srpr logFC: 0.3052
- Srsf11 logFC: 0.4012
- Ssr3 logFC: 0.5218
- St3gal5 logFC: 0.6076
- Stbd1 logFC: −0.2732
- Steap4 logFC: 0.476
- Stk17b logFC: 0.2911
- Stom logFC: 0.3232
- Stt3b logFC: 0.3194
- Suco logFC: 0.251
- Suds3 logFC: 0.2539
- Sult1d1 logFC: 0.4599
- Supt6 logFC: 0.2913
- Surf4 logFC: 0.2586
- Syncrip logFC: 0.2748
- Tars logFC: 0.4921
- Tbl1xr1 logFC: 0.3075
- Tcea3 logFC: −0.355
- Tceb2 logFC: −0.3207
- Tfpi2 logFC: −0.3663
- Tgm2 logFC: 0.3993
- Tgoln1 logFC: 0.3883
- Timm8b logFC: −0.3936
- Timm13 logFC: −0.433
- Tjp1 logFC: 0.2862
